The values below come from BindingDB's records for doi:10.1021/jm00145a017 (1985).

SMILES strings stand for the structures.

This experiment in a line: Intrinsic affinity towards serotonin receptor from rat frontal cortex by displacement of [3H]spiperone.
What is called Ki is the dissociation constant of the complex between target and ligand, obtained from inhibition or displacement. Low readings indicate higher affinity, high ones lower affinity. On to `FC(F)(F)c1ccc2c(c1)N1CCNCC1CC2` (stereo not drawn) [9-Trifluoromethyl-2,3,4,4a,5,6-hexahydro-1H-pyrazino[1,2-a]quinoline], for which the inhibition constant Ki came to 136 nM.
`Clc1cncc(N2CCNCC2)n1` [L-630,571] had a Ki of 6000 nM.
Consider `FC(F)(F)c1cccc(N2CCNCC2)c1` [TFMPP], for which the affinity corresponds to a Ki of 298 nM.
